US8906885B2, “Treating cancer with HSP90 inhibitory compounds” (Synta Pharmaceuticals Corp., priority 2011, dated 2014)
Read-outs that look alike come from different tables or passages of the source.

Tests used:
[1] = test system: NB-39-nu neuroblastoma cell line; assay: NB-39-nu neuroblastoma cell viability; conditions: for effect in combination with ganetespib: NB-39-nu cells
H3122 xenografts [2] = assay: Survival of animals bearing H3122 xenografts; type: in vivo, mouse
H3122 xenografts [3] = assay: Sequential treatment of H3122 xenografts progressing on ganetespib; type: in vivo, mouse; conditions: after 26 days of ganetespib
H3122 NSCLC cells = assay: H3122 cell viability, Cell Titer Glo, 72 h; type: cell-based; conditions: for IC50: Homo sapiens, NCI-H3122, read-out: cytotoxic potency
Description: H3122 cells were seeded in 96 well plates at a density of 7500 cells per well.
Twenty-four hours after plating, cells were dosed with graded concentrations of drug or vehicle for 72 hours. Viability was measured by the Cell Titer Glo assay (Promega).
(§1) Then, criztoinib was added to a final concentration of 1 μM. […] Viability was measured by Cell Titer Glo assay (Promega) (FIG. 5)

ALK+ NSCLC = assay: Phase 2 NSCLC trial, patients tested for ALK translocation or rearrangement (ALK+); type: in vivo, human; conditions: eight ALK+ patients; monotherapy once-weekly 200 mg/m^2
Text: FIG. 1 is a waterfall diagram showing the best percentage changes in size of target lesions responses according to ALK status after treatment with ganetespib. The y axis represents the percentage tumor volume change from baseline. […] A subject was considered to be ALK+ if a mutation in ALK was detected using any of the methods.
Of 23 patients in a Phase 2 trial tested for ALK translocation or rearrangement (ALK+), eight patients were ALK+ in at least one assay. […] The disease control rate in this population was ⅞ (88%), and the objective response rate (CR+PR) was 4/8 (50%).
This Phase 2 NSCLC trial was designed to enroll patients with advanced, metastatic disease (Stage IIIB and IV) who had failed prior therapy. Patients were grouped into one of three cohorts based on the genetic profile of their cancer—(A) EGFR mutation, (B) KRAS mutation, (C) neither EGFR nor KRAS mutation—and were treated with Compound 1, as a monotherapy, once-weekly at a dose of 200 mg/m^2. Based on initial encouraging signs of activity, the trial was expanded with two additional patient cohorts, including a cohort which allowed for combination treatment with ganetespib and docetaxel.

EML4-ALK positive NSCLC = assay: Case study, crizotinib refractory EML4-ALK positive NSCLC patient; type: in vivo, human; conditions: after three weeks of once-weekly injections; patient with resistance mutation to crizotinib
Text: FIG. 2 depicts lung photographs of a person with NSCLC, who was diagnosed, and treated with pemetrexed/cisplatinum with pemetrexed maintenance for thirteen months. […] The picture on the left was taken on before commencing treatment with ganetespib. Treatment of ganetespib was initiated nine days later. The picture on the right was taken thirty-one days after the picture on the left.
The picture on the left was taken on before commencing treatment with ganetespib. Treatment of ganetespib was initiated nine days later.

H2228 NSCLC cells = assay: H2228 cell viability; type: cell-based
EML4-ALK [4] = assay: Pharmacodynamic analysis in H3122 xenografts (western blot)
[5] = test system: NPM-ALK and mutant NPM-ALK; assay: Immunoblotting of NPM-ALK degradation in BaF3 cells; type: cell-based; conditions: wild type and 15 mutant forms
H3122 xenografts [6] = test system: H3122 xenografts
Description: Tumor volume was measured twice weekly to assess the level of growth inhibition.
As for in vivo xenograft tumor models, female BALB/c, immunodeficient BALB/c nude and CB-17/Icr-Prkdcscid/Crl (SCID) mice (Charles River Laboratories, Wilmington, Mass.) at 7-12 weeks of age were maintained in a pathogen-free environment and all in vivo procedures were approved by the Synta Pharmaceuticals Corp. Statistical analyses were performed using a Kruskal-Wallace one-way ANOVA on ranks followed by the Tukey test. […]

ALK = ALK degradation and effector signaling in NB-39-nu cells
[7] = test system: crizotinib resistant H2228 cells; assay: Viability of crizotinib resistant H2228 cells; type: cell-based
[8] = test system: crizotinib-resistant NPM-ALK/BaF3 cells; conditions: all crizotinib-resistant NPM-ALK/BaF3 clones
[9] = test system: crizotinib resistant H3122 cells; assay: Viability of crizotinib resistant H3122 cells; type: cell-based
Description: as §1

NPM-ALK/BaF3 cells = assay: Cytotoxic IC50 by XTT assay, NPM-ALK/BaF3 cells; conditions: read-out: cytotoxic IC50; crizotinib-sensitive parental NPM-ALK/BaF3, 72-hr incubation
EML4-ALK [10] = target: T1, EML4-ALK (Homo sapiens, UniProt Q9UM73); assay: Western blot of EML4-ALK and signaling proteins in H3122 cells; type: cell-based
T1 construct: the breakpoint of ALK occurs consistently at exon 20, 5′ of the kinase domain; EML4 N-terminal portion (through exon 13); endogenous in cells; host or cells: H3122 NSCLC cells; the other entry of the earlier key: EML4 (Q9HC35, Echinoderm microtubule-associated protein-like 4)
T1 sequence (Q9UM73 with tags, fused parts or gaps): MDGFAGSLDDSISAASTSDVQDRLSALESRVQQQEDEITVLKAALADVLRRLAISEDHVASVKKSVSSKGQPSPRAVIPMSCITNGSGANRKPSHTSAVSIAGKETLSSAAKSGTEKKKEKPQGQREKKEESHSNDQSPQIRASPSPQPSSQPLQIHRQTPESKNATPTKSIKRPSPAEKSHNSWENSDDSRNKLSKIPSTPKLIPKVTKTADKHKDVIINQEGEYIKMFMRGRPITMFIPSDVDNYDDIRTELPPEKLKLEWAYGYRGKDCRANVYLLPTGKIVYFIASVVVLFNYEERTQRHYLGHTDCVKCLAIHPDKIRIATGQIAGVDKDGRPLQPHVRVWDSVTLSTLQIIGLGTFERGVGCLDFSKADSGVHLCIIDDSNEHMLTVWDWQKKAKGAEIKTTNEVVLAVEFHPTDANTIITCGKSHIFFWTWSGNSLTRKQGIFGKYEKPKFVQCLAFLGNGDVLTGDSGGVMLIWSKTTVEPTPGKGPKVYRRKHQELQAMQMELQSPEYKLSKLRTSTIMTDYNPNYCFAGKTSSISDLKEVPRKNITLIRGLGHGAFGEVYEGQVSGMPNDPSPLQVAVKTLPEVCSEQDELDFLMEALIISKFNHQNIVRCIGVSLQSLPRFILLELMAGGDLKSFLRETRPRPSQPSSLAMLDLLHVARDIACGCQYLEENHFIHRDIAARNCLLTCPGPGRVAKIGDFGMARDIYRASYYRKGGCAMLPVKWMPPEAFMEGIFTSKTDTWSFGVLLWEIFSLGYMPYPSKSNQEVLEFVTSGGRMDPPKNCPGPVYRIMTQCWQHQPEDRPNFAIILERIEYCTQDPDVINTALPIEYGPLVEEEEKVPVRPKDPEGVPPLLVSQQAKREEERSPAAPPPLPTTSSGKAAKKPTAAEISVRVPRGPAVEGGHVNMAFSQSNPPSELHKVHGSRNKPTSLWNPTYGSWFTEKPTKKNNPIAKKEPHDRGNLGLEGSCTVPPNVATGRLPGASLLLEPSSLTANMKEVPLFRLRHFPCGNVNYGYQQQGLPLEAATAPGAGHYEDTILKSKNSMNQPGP
Description: H3122 cells were plated in 6 well plates at a density of 300,000 cells per well. […] Equivalent amounts of protein were resolved by SDS-PAGE followed by western blot analysis of signaling proteins.

COc1cc(N2CCC(N3CCN(C)CC3)CC2)ccc1Nc1ncc(Cl)c(Nc2ccccc2S(=O)(=O)C(C)C)n1 [TAE684]
effect in combination with ganetespib [1]: enhanced the anticancer actions of ganetespib

C[C@@H](Oc1cc(-c2cnn(C3CCNCC3)c2)cnc1N)c1c(Cl)ccc(F)c1Cl [crizotinib, reference compound]
effect in combination with ganetespib [1]: enhanced the anticancer actions of ganetespib | survival (day at which 50% of animals died) (H3122 xenografts [2]; crizotinib 50 mg/kg 5×/wk): 54 days | response of tumors progressing (>20% increase in volume) on ganetespib to subsequent treatment (H3122 xenografts [3]): intermediary response | IC50 (H3122 NSCLC cells; H3122 cells): 156 nM

CC(C)c1cc(-c2nnc(O)n2-c2ccc3c(ccn3C)c2)c(O)cc1O [ganetespib, 3-(2,4-dihydroxy-5-isopropyl-phenyl)-4-(1-methyl-indol-5-yl)-5-hydroxy-[1,2,4] triazole]
disease control rate (ALK+ NSCLC): 88% | objective response rate (CR+PR) (ALK+ NSCLC): 50% | patients showing tumor shrinkage in target lesions (ALK+ NSCLC): 75% | IC50 ([1]; Neuroblastoma cell, read-out: viability IC50): 10 nM | tumor response on lung pictures (EML4-ALK positive NSCLC): visible and significant tumor shrinkage | potency compared with crizotinib (H2228 NSCLC cells): significantly more potent than crizotinib | duration of EML4-ALK depletion and block of oncogenic signaling pathways (EML4-ALK [4]; 100 mpk (FIG. 13 legend)): up to 4 days | time to degradation of EML4-ALK and deactivation of ERK signaling (EML4-ALK [4]; single bolus injection 50 mg/kg): ≤ 24 h | duration of destabilization of fusion kinase and its effectors (EML4-ALK [4]; single dose 50 mg/kg): up to 72 h | degradation of ALK [5]: induced the degradation of wild type and all 15 mutant forms of ALK | T/C value (H3122 xenografts [6]; ganetespib 25 mg/kg once weekly): 41% | T/C value (H3122 xenografts [6]; ganetespib 25 mg/kg two consecutive days each week): 10% | T/C value (H3122 xenografts [6]; ganetespib 50 mg/kg i.v. once a week, 3 week period): 21% | degradation of ALK (ALK): dose-dependent degradation | animals lost on study (H3122 xenografts [2]; ganetespib 50 mg/kg 1×/wk, as of day 75): none of the animals treated with ganetespib had been lost | activity in crizotinib resistant cells [7]: low nanomolar activity equivalent to that observed in the parental population | IC50 values in crizotinib-resistant clones [8]: essentially identical to that of NPM-ALK/BaF3 | activity in crizotinib resistant cells [9]: low nanomolar activity equivalent to that observed in the parental population | response of tumors progressing (>20% increase in volume) on ganetespib to subsequent treatment (H3122 xenografts [3]): remained fairly stable | IC50 (NPM-ALK/BaF3 cells): 21 nM | potency compared with crizotinib (H3122 NSCLC cells; H3122 NSCLC cells): significantly more potent than crizotinib | potency relative to crizotinib (H3122 NSCLC cells; H3122 cells): ~50 times | potency compared to other anticancer agents (crizotinib, 17-AAG, pemetrexed, BEZ-235, AZD6244) (H3122 NSCLC cells; H3122 cells, 72 hours): 2-300 × | IC50 (H3122 NSCLC cells; H3122 cells): 3.2 nM | concentration giving complete loss of phosphorylated EML4-ALK (EML4-ALK [10]): 30 nM
